Measurements taken from patent publication US20240101570A1 (AMGEN INC., priority 2020, published 2024).

Key:
[1] = system: HCT116 MTAP null cells; experiment: HCT116 MTAP null cell proliferation / viability (CellTiter-Glo, 6 days); format: cell-based; details: HCT116-MTAP null, 144 h, HCT116 MTAP null cells, 6 days, CellTiter-Glo; read-out: HCT-116 MTAP null IC50
Method in brief: (§1)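 IC50 values derive from sigmoidal dose-response fits, some with Hill slope fixed at −1 and top constrained to 100%, others from 4-parameter logistic models. They reflect CellTiter-Glo viability after 6 days of compound exposure at up to 10 or 50 μM.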

[2] = system: HCT116 WT cells; experiment: HCT116 WT cell proliferation / viability (CellTiter-Glo, 6 days); format: cell-based; details: Homo sapiens, HCT-116, 144 h, HCT116 WT cells, 6 days, CellTiter-Glo; read-out: HCT-116 WT IC50
Method in brief: as §1

## CCOc1ccc(CN(C(=O)c2ccc3nc(N)c4c(c3c2)CO[C@@H]4C)C23CC(C2)C3)nn1 [Example 482, (3R)-4-amino-N-(bicyclo[1.1.1]pentan-1-yl)-N-((6-ethoxy-3-pyridazinyl)methyl)-3-methyl-1,3-dihydrofuro[3,4-c]quinoline-8-carboxamide]
[1]
  IC50: 52 nM
[2]
  IC50: 2640 nM

## CCN(Cc1ccc(C2CC2)cn1)C(=O)c1ccc2nc(N)c3c(c2c1)COC3 [Example 539, 4-amino-N-((5-cyclopropyl-2-pyridinyl)methyl)-N-ethyl-1,3-dihydrofuro[3,4-c]quinoline-8-carboxamide]
[1]
  IC50: 106 nM
[2]
  IC50: 2100 nM

## C[C@H](c1ncccn1)N(Cc1ccc(C2CC2)nn1)C(=O)c1ccc2nc(N)c3c(c2c1)COC3 [Example 458, 4-amino-N-((6-cyclopropyl-3-pyridazinyl)methyl)-N-((1R)-1-(2-pyrimidinyl)ethyl)-1,3-dihydrofuro[3,4-c]quinoline-8-carboxamide]
[1]
  IC50: 26 nM
[2]
  IC50: 361 nM

## C[C@H](c1ncccn1)N(Cc1ccc(C(F)(F)F)cn1)C(=O)c1ccc2nc(N)c3c(c2c1)COC3 [Example 653, 4-amino-N-((1R)-1-(2-pyrimidinyl)ethyl)-N-((5-(trifluoromethyl)-2-pyridinyl)methyl)-1,3-dihydrofuro[3,4-c]quinoline-8-carboxamide]
[1]
  IC50: 8 nM
[2]
  IC50: 73 nM

## CN(Cc1ccc(C2CC2)nn1)C(=O)c1cc2c(cc1F)nc(N)c1c2cnn1C [Example 517, 4-amino-N-((6-cyclopropyl-3-pyridazinyl)methyl)-7-fluoro-N,3-dimethyl-3H-pyrazolo[3,4-c]quinoline-8-carboxamide]
[1]
  IC50: 706 nM
[2]
  IC50: 45400 nM

## CC[C@H](c1ccc(C(F)(F)F)cn1)N(CC)C(=O)c1cc2c3c(c(N)nc2cn1)COC3 [Example 761, 4-amino-N-ethyl-N-((1R)-1-(5-(trifluoromethyl)-2-pyridinyl)propyl)-1,3-dihydrofuro[3,4-c][1,7]naphthyridine-8-carboxamide]
[1]
  IC50: 305 nM
[2]
  IC50: 13600 nM

## CC(C)N(Cc1ccc(C2CC2)nc1)C(=O)c1cc2c3c(c(N)nc2cc1F)COC3 [Example 363, 4-amino-N-((6-cyclopropyl-3-pyridinyl)methyl)-7-fluoro-N-(2-propanyl)-1,3-dihydrofuro[3,4-c]quinoline-8-carboxamide]
[1]
  IC50: 36 nM
[2]
  IC50: 1180 nM

## CC(C)N(Cc1ccc(C2CC2)cn1)C(=O)c1cc2c3c(c(N)nc2cn1)[C@@H](C)OC3 [Example 406, (3R)-4-amino-N-((5-cyclopropyl-2-pyridinyl)methyl)-3-methyl-N-(2-propanyl)-1,3-dihydrofuro[3,4-c][1,7]naphthyridine-8-carboxamide]
[1]
  IC50: 97 nM
[2]
  IC50: 4140 nM

## C[C@@H](c1ccc(C(F)(F)F)nn1)N(C(=O)c1cc2c(cc1Cl)nc(N)c1cnn(C)c12)C1CC1 (single isomer, unassigned) [Example 880]
[1]
  IC50: 137 nM
[2]
  IC50: 8310 nM

## C[C@H](c1ccc(C(F)(F)F)cn1)N(C)C(=O)c1ccc2nc(N)c3cnn(C)c3c2c1 (single isomer, unassigned) [Example 600]
[1]
  IC50: 18 nM
[2]
  IC50: 663 nM

## N#Cc1ccc(CN(C(=O)c2ccc3nc(N)c4c(c3c2)COC4)C2CC2)nc1 [Example 454, 4-amino-N-((5-cyano-2-pyridinyl)methyl)-N-cyclopropyl-1,3-dihydrofuro[3,4-c]quinoline-8-carboxamide]
[1]
  IC50: 550 nM
[2]
  IC50: 17900 nM

## Cn1cc(N(Cc2ccc(C(F)(F)F)cn2)C(=O)c2ccc3nc(N)c4c(c3c2)COC4)cn1 [Example 884, 4-amino-N-(1-methyl-1H-pyrazol-4-yl)-N-((5-(trifluoromethyl)-2-pyridinyl)methyl)-1,3-dihydrofuro[3,4-c]quinoline-8-carboxamide]
[1]
  IC50: 27 nM
[2]
  IC50: 733 nM

## CCN(Cc1ccc(C(F)(F)F)nn1)C(=O)c1cc2c3c(c(N)nc2cc1F)[C@@H](C)OC3 [Example 559, (3R)-4-amino-N-ethyl-7-fluoro-3-methyl-N-((6-(trifluoromethyl)-3-pyridazinyl)methyl)-1,3-dihydrofuro[3,4-c]quinoline-8-carboxamide]
[1]
  IC50: 30 nM
[2]
  IC50: 1180 nM

## CC(c1ncccn1)N(Cc1ccc(C(F)(F)F)cn1)C(=O)c1ccc2nc(N)c3c(c2c1)COC3 (racemic) [Example 640, 4-amino-N-((1R)-1-(2-pyrimidinyl)ethyl)-N-((5-(trifluoromethyl)-2-pyridinyl)methyl)-1,3-dihydrofuro[3,4-c]quinoline-8-carboxamide and 4-amino-N-((1S)-1-(2-pyrimidinyl)ethyl)-N-((5-(trifluoromethyl)-2-pyridinyl)methyl)-1,3-dihydrofuro[3,4-c]quinoline-8-carboxamide]
[1]
  IC50: 13 nM
[2]
  IC50: 110 nM

## C[C@H](c1ncc(F)cn1)N(CCOC(F)(F)F)C(=O)c1cc2c3c(c(N)nc2cc1F)COC3 (single isomer, unassigned) [Example 834]
[1]
  IC50: 817 nM
[2]
  IC50: 19700 nM

## C[C@H](c1ncccn1)N(Cc1ccc(C(F)F)cn1)C(=O)c1cnc2nc(N)c3c(c2c1)CCC3 [Example 625, 6-amino-N-((5-(difluoromethyl)-2-pyridinyl)methyl)-N-((1R)-1-(2-pyrimidinyl)ethyl)-8,9-dihydro-7H-cyclopenta[c][1,8]naphthyridine-2-carboxamide]
[1]
  IC50: 130 nM
[2]
  IC50: 1590 nM

## CC(c1ccc(F)cn1)N(C)C(=O)c1cc2c3c(c(N)nc2cc1Cl)COC3 (racemic) [Example 772, 4-amino-7-chloro-N-((1R)-1-(5-fluoro-2-pyridinyl)ethyl)-N-methyl-1,3-dihydrofuro[3,4-c]quinoline-8-carboxamide and 4-amino-7-chloro-N-((1S)-1-(5-fluoro-2-pyridinyl)ethyl)-N-methyl-1,3-dihydrofuro[3,4-c]quinoline-8-carboxamide]
[1]
  IC50: 374 nM
[2]
  IC50: 18200 nM

## C[C@H]1OCc2c1c(N)nc1cnc(C(=O)N(Cc3ccc(C(F)(F)F)cn3)C34CC(C3)C4)cc21 [Example 311, (3R)-4-amino-N-(bicyclo[1.1.1]pentan-1-yl)-3-methyl-N-((5-(trifluoromethyl)-2-pyridinyl)methyl)-1,3-dihydrofuro[3,4-c][1,7]naphthyridine-8-carboxamide]
[1]
  IC50: 56 nM
[2]
  IC50: 2200 nM

## CN(Cc1ccc(C(F)F)cn1)C(=O)c1ccc2nc(N)c3cnn(C)c3c2c1 [Example 524, 4-amino-N-((5-(difluoromethyl)-2-pyridinyl)methyl)-N,1-dimethyl-1H-pyrazolo[4,3-c]quinoline-8-carboxamide]
[1]
  IC50: 183 nM
[2]
  IC50: 16400 nM

## CCN(Cc1ccc(C(F)(F)F)cc1)C(=O)c1cc2c3c(c(N)nc2cn1)COC3 [Example 707, 4-amino-N-ethyl-N-(4-(trifluoromethyl)benzyl)-1,3-dihydrofuro[3,4-c][1,7]naphthyridine-8-carboxamide]
[1]
  IC50: 106 nM
[2]
  IC50: 2870 nM

## Cn1ncc2c(N)nc3cc(C(F)(F)F)c(C(=O)N(Cc4ccc(C(F)(F)F)cn4)C4CC4)cc3c21 [Example 812, 4-amino-N-cyclopropyl-1-methyl-7-(trifluoromethyl)-N-((5-(trifluoromethyl)-2-pyridinyl)methyl)-1H-pyrazolo[4,3-c]quinoline-8-carboxamide]
[1]
  IC50: 237 nM
[2]
  IC50: 14100 nM
